Reference: patent publication US6737383B1, “Herbicidal oxadiazolidines” (priority 1999, dated 2004)

What was measured:
bedstraw = assay: Test B pre/postemergence bedstraw; format: in vivo, Galium aparine
Procedure, shortened: (§1)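 Test chemicals in a non-phytotoxic solvent mixture with surfactant were sprayed preemergence onto planted seeds and postemergence onto plants 2 to 18 cm tall (1- to 4-leaf stage). After twelve to sixteen days in a greenhouse, injury was visually rated against untreated controls from 0 (no effect) to 10 (complete control).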

cocklebur = assay: Test B pre/postemergence cocklebur; format: in vivo, Xanthium strumarium
Procedure, shortened: as §1

purple nutsedge = assay: Test B pre/postemergence purple nutsedge; format: in vivo, Cyperus rotundus; conditions: for Plant response rating, Nutsedge: scale of 0 to 10 where 0 is no effect and 10 is complete control
Procedure, shortened: as §1

bamyardgrass = assay: Test B flood test barnyardgrass; format: in vivo, Echinochloa crus-galli
Procedure, shortened: (§2)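 Read-out is a visual response score from 0 (no effect) to 10 (complete control), assigned by comparison with untreated controls. Treatment was applied at the 2-leaf stage, and plants stayed in the greenhouse for twelve to sixteen days before scoring.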

surinam grass = assay: Test B pre/postemergence surinam grass; format: in vivo, Brachiaria decumbens
Procedure, shortened: as §1

rape = assay: Test B pre/postemergence rape; format: in vivo, Brassica napus; conditions: for Plant response rating, Rape: scale of 0 to 10 where 0 is no effect and 10 is complete control
Procedure, shortened: as §1

wild oat = assay: Test B pre/postemergence wild oat; format: in vivo, Avena fatua; conditions: for Plant response rating, Wild oats: scale of 0 to 10 where 0 is no effect and 10 is complete control
Procedure, shortened: as §1

pigweed = assay: Test B pre/postemergence pigweed; format: in vivo, Amaranthus retroflexus; conditions: for Plant response rating, Redroot pigweed: scale of 0 to 10 where 0 is no effect and 10 is complete control
Procedure, shortened: as §1

wheat = assay: Test B pre/postemergence wheat; format: in vivo, Triticum aestivum; conditions: for Plant response rating, Wheat: scale of 0 to 10 where 0 is no effect and 10 is complete control
Procedure, shortened: as §1

blackgrass = assay: Test B pre/postemergence blackgrass; format: in vivo, Alopecurus myosuroides
Procedure, shortened: as §1

duck salad = assay: Test B flood test duck salad; format: in vivo, Heteranthera limosa
Procedure, shortened: as §2

smallflower flatsedge = assay: Test B flood test smallflower flatsedge; format: in vivo, Cyperus difformis
Procedure, shortened: as §2

giant foxtail = assay: Test B pre/postemergence giant foxtail; format: in vivo, Setaria faberii; conditions: for Plant response rating, Giant foxtail: scale of 0 to 10 where 0 is no effect and 10 is complete control
Procedure, shortened: as §1

soybean = assay: Test B pre/postemergence soybean; format: in vivo, Glycine max; conditions: for Plant response rating, Soybean: scale of 0 to 10 where 0 is no effect and 10 is complete control
Procedure, shortened: as §1

morningglory = assay: Test B pre/postemergence morningglory; format: in vivo, Ipomoea hederacea; conditions: for Plant response rating, Morningglory: scale of 0 to 10 where 0 is no effect and 10 is complete control
Procedure, shortened: as §1

sugar beet = assay: Test B pre/postemergence sugar beet; format: in vivo, Beta vulgaris; conditions: for Plant response rating, Sugarbeets: scale of 0 to 10 where 0 is no effect and 10 is complete control
Procedure, shortened: as §1

[1] = Postemergence, Rate 250 g/ha, scale 0 to 10
[2] = Preemergence, Rate 250 g/ha, scale 0 to 10, 0 is no effect, 10 is complete control
[3] = Preemergence, Rate 500 g/ha, scale 0 to 10, 0 is no effect, 10 is complete control
[4] = Rate 62 g/ha, Postemergence, scale 0 to 10 (0 no effect, 10 complete control)
[5] = Rate 125 g/ha, Postemergence, scale 0 to 10, 0 is no effect, 10 is complete control
[6] = Postemergence, Rate 500 g/ha, scale of 0 to 10 where 0 is no effect and 10 is complete control
[7] = Preemergence, Rate 62 g/ha, scale of 0 to 10 where 0 is no effect and 10 is complete control
[8] = Preemergence, Rate 125 g/ha, scale of 0 to 10 where 0 is no effect and 10 is complete control
[9] = Rate 62 g/ha, flood test species, Pre-emergence, visual evaluation after twelve to sixteen days
[10] = Rate 125 g/ha, under heading Pre-emergence, flood test species, visual evaluation after twelve to sixteen days
[11] = Rate 250 g/ha, Pre-emergence (flood test species), scale 0 to 10, 0 is no effect, 10 is complete control
[12] = Rate 500 g/ha, Pre-emergence, flood test species, scale 0 to 10 (0 no effect, 10 complete control)

Structure (SMILES): CC(C)N(C(=O)n1oc(=O)n(C(C)C(=O)N(C)C)c1=O)c1ccccc1 (stereo not drawn) [Compound 479]
- Bedstraw plant response rating (bedstraw; [1]): 0
- Bedstraw plant response rating (bedstraw; [2]): 0
- Bedstraw plant response rating (bedstraw; [3]): 0
- Bedstraw plant response rating (bedstraw; [4]): 0
- Bedstraw plant response rating (bedstraw; [5]): 0
- Cocklebur plant response rating (cocklebur; [1]): 0
- Cocklebur plant response rating (cocklebur; [6]): 0
- Plant response rating, Cocklebur (cocklebur; [7]): 0
- Plant response rating, Cocklebur (cocklebur; [8]): 0
- Cocklebur plant response rating (cocklebur; [2]): 0
- Cocklebur plant response rating (cocklebur; [4]): 0
- Cocklebur plant response rating (cocklebur; [5]): 0
- Nutsedge plant response rating (purple nutsedge; [1]): 0
- Plant response rating, Nutsedge (purple nutsedge; Preemergence, Rate 62 g/ha): 0
- Plant response rating, Nutsedge (purple nutsedge; Preemergence, Rate 125 g/ha): 0
- Nutsedge plant response rating (purple nutsedge; [2]): 0
- Nutsedge plant response rating (purple nutsedge; [4]): 0
- Nutsedge plant response rating (purple nutsedge; [5]): 0
- Plant response rating, Barnyardgrass (0 to 10 scale, 0 is no effect, 10 is complete control) (bamyardgrass; [9]): 0
- Barnyardgrass plant response rating (0 to 10 scale, 0 is no effect, 10 is complete control) (bamyardgrass; [10]): 0
- Barnyardgrass plant response rating (bamyardgrass; [11]): 0
- Barnyardgrass plant response rating (bamyardgrass; [12]): 0
- B. signalgrass plant response rating (surinam grass; Postemergence, Rate 250 g/ha, scale 0 to 10, 0 no effect, 10 complete control): 3
- B. signalgrass plant response rating (surinam grass; [6]): 7
- Plant response rating, B. signalgrass (surinam grass; [7]): 0
- Plant response rating, B. signalgrass (surinam grass; [8]): 5
- B. signalgrass plant response rating (surinam grass; [2]): 6
- B. signalgrass plant response rating (surinam grass; [3]): 9
- B. signalgrass plant response rating (surinam grass; [4]): 0
- B. signalgrass plant response rating (surinam grass; [5]): 2
- Rape plant response rating (rape; [1]): 0
- Plant response rating, Rape (rape; Preemergence, Rate 62 g/ha): 0
- Plant response rating, Rape (rape; Preemergence, Rate 125 g/ha): 0
- Rape plant response rating (rape; [2]): 1
- Rape plant response rating (rape; [3]): 4
- Rape plant response rating (rape; [4]): 0
- Rape plant response rating (rape; [5]): 0
- Wild oats plant response rating (wild oat; [1]): 0
- Plant response rating, Wild oats (wild oat; Preemergence, Rate 62 g/ha): 0
- Plant response rating, Wild oats (wild oat; Preemergence, Rate 125 g/ha): 4
- Wild oats plant response rating (wild oat; [2]): 5
- Wild oats plant response rating (wild oat; [3]): 7
- Wild oats plant response rating (wild oat; [4]): 0
- Wild oats plant response rating (wild oat; [5]): 0
- Redroot pigweed plant response rating (pigweed; [1]): 2
- Plant response rating, Redroot pigweed (pigweed; Preemergence, Rate 62 g/ha): 0
- Plant response rating, Redroot pigweed (pigweed; Preemergence, Rate 125 g/ha): 3
- Redroot pigweed plant response rating (pigweed; [2]): 6
- Redroot pigweed plant response rating (pigweed; [3]): 6
- Redroot pigweed plant response rating (pigweed; [4]): 0
- Redroot pigweed plant response rating (pigweed; [5]): 2
- Wheat plant response rating (wheat; [1]): 0
- Plant response rating, Wheat (wheat; Preemergence, Rate 62 g/ha): 0
- Plant response rating, Wheat (wheat; Preemergence, Rate 125 g/ha): 0
- Wheat plant response rating (wheat; [2]): 3
- Wheat plant response rating (wheat; [3]): 7
- Wheat plant response rating (wheat; [4]): 0
- Wheat plant response rating (wheat; [5]): 0
- Blackgrass plant response rating (blackgrass; [1]): 4
- Blackgrass plant response rating (blackgrass; [6]): 7
- Plant response rating, Blackgrass (blackgrass; [7]): 2
- Plant response rating, Blackgrass (blackgrass; [8]): 6
- Blackgrass plant response rating (blackgrass; [2]): 8
- Blackgrass plant response rating (blackgrass; [3]): 9
- Blackgrass plant response rating (blackgrass; [4]): 0
- Blackgrass plant response rating (blackgrass; [5]): 0
- Plant response rating, Ducksalad (0 to 10 scale, 0 is no effect, 10 is complete control) (duck salad; [9]): 0
- Ducksalad plant response rating (0 to 10 scale, 0 is no effect, 10 is complete control) (duck salad; [10]): 0
- Ducksalad plant response rating (duck salad; [11]): 0
- Ducksalad plant response rating (duck salad; [12]): 0
- Plant response rating, S. Flatsedge (0 to 10 scale, 0 is no effect, 10 is complete control) (smallflower flatsedge; [9]): 0
- S. Flatsedge plant response rating (0 to 10 scale, 0 is no effect, 10 is complete control) (smallflower flatsedge; [10]): 0
- S. Flatsedge plant response rating (smallflower flatsedge; [11]): 0
- S. Flatsedge plant response rating (smallflower flatsedge; [12]): 0
- Giant foxtail plant response rating (giant foxtail; [1]): 6
- Plant response rating, Giant foxtail (giant foxtail; Preemergence, Rate 62 g/ha): 7
- Plant response rating, Giant foxtail (giant foxtail; Preemergence, Rate 125 g/ha): 9
- Giant foxtail plant response rating (giant foxtail; [2]): 10
- Giant foxtail plant response rating (giant foxtail; [3]): 10
- Giant foxtail plant response rating (giant foxtail; [4]): 0
- Giant foxtail plant response rating (giant foxtail; [5]): 3
- Soybean plant response rating (soybean; [1]): 3
- Plant response rating, Soybean (soybean; Preemergence, Rate 62 g/ha): 0
- Plant response rating, Soybean (soybean; Preemergence, Rate 125 g/ha): 0
- Soybean plant response rating (soybean; [2]): 0
- Soybean plant response rating (soybean; [3]): 0
- Soybean plant response rating (soybean; [4]): 1
- Soybean plant response rating (soybean; [5]): 1
- Morningglory plant response rating (morningglory; [1]): 10
- Plant response rating, Morningglory (morningglory; Preemergence, Rate 62 g/ha): 0
- Plant response rating, Morningglory (morningglory; Preemergence, Rate 125 g/ha): 0
- Morningglory plant response rating (morningglory; [2]): 4
- Morningglory plant response rating (morningglory; [3]): 4
- Morningglory plant response rating (morningglory; [4]): 7
- Morningglory plant response rating (morningglory; [5]): 10
- Sugarbeets plant response rating (sugar beet; [1]): 0
- Plant response rating, Sugarbeets (sugar beet; Preemergence, Rate 62 g/ha): 0
- Plant response rating, Sugarbeets (sugar beet; Preemergence, Rate 125 g/ha): 0
- Sugarbeets plant response rating (sugar beet; [2]): 2
- Sugarbeets plant response rating (sugar beet; [3]): 4
- Sugarbeets plant response rating (sugar beet; [4]): 0
- Sugarbeets plant response rating (sugar beet; [5]): 0
